Assay results: patent publication US20200362380A1, “Novel Biomolecule and Methods of Manufacturing Thereof” (priority 2018, published 2020)

Tested on: plants
Assay: auxin effect on plants (media based agriculture)
Type: in vivo
Conditions: media based agriculture with and without soil; statement in words only
From the text: The resulting monomer can be leached through the media column and recuperated in pure form after filtering out any bacteria using appropriate filtration such as diatomaceous earth or filter paper. This can also be carried out in media based agriculture both with and without soil.

3-4 deoxy-glucosamine [monomer]
auxin effect on plants: pronounced auxin effect
